In patent US10144742B2 (Millennium Pharmaceuticals, Inc., priority 2014, dated 2018):
Read-outs that look alike come from different tables or passages of the source.

Experiments:
hNAMPT protein = hNAMPT protein (Homo sapiens (Human), UniProt P43490); assay: NAMPT enzyme assay (TR-FRET/HTRF, BodiPY ligand, anti 6His-Tb); type: binding; conditions: for inhibition at 1 µM: read-out: Percent Inhibition; for IC50: read-out: IC50
How it was run: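 TR-FRET binding assay in which His-tagged human NAMPT with anti-6His-Tb is displaced by compound from a BodiPY ligand, incubated 1 h at rt in the dark. Excitation was at 320 nm, with the 520/486 nm emission ratio read. IC50 was fitted from inhibition relative to DMSO controls.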

PC3 cells = assay: PC3 growth inhibition (Cell-titer glo, 72 hours); type: cell-based; conditions: Homo sapiens, PC-3, PC3 cells, 72 hours, Cell-titer glo, read-out: Percent Inhibition (PC3 growth inhibition); for inhibition at 1.667 µM: compound concentration 1.667 μM; for inhibition at 1 µM: compound concentration 1 μM
How it was run: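 PC3 cells in RPMI1640 seeded overnight at 37 °C, 5% CO2, then exposed to compound diluted in AIM serum-free medium for 72 h. Viability by CellTiter-Glo luminescence vs DMSO controls; single-concentration % remaining viability (1 μM or 1.667 μM), or GI50/LD50 from curves.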

[1] = NAMPT inhibition at compound concentration 1 μM
[2] = NAMPT inhibition, IC50 range class

hNAMPT protein, sequence (P43490 whole entry): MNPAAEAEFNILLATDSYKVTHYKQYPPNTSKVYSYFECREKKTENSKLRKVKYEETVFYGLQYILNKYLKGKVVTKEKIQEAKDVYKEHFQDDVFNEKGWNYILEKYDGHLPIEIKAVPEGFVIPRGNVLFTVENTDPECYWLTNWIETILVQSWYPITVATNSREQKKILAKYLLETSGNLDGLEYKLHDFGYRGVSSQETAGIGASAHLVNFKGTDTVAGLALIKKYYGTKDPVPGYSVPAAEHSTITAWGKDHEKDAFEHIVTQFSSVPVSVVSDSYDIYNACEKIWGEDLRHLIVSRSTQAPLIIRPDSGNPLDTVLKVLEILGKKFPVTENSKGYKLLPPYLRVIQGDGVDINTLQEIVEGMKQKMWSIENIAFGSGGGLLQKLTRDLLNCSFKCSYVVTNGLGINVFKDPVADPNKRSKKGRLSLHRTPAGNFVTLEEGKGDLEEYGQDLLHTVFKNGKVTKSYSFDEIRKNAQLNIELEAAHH

## Cc1cc(-c2nc3cc(C(=O)NCCCc4ncc[nH]4)ccc3nc2-c2ccc(F)cc2)ccc1F [Compound I-471, 3-(4-fluoro-3-methylphenyl)-2-(4-fluorophenyl)-N-[3-(1H-imidazol-2-yl)propyl]quinoxaline-6-carboxamide]
hNAMPT protein; [1]
  inhibition at 1 µM: > 99%
hNAMPT protein; [2]
  IC50: < 100 nM
PC3 cells
  inhibition at 1.667 µM: 2%

## O=C(NCCCn1ccnc1)c1ccc2nc(N3CCC4(CC3)OCCO4)c(-c3ccccc3)nc2c1 [Compound I-275]
hNAMPT protein; NAMPT IC50 range class
  IC50: < 100 nM
hNAMPT protein; compound concentration 1 μM
  inhibition at 1 µM: 99%
PC3 cells
  inhibition at 1 µM: 0%

## Cn1ccc(CCNC(=O)c2ccc3nc(-c4ccc(F)cc4)c(-c4ccc(F)cc4)nc3c2)n1 [Compound I-108, 2,3-bis(4-fluorophenyl)-N-[2-(1-methyl-1H-pyrazol-3-yl)ethyl]quinoxaline-6-carboxamide]
hNAMPT protein; NAMPT IC50 range class
  IC50: 1000 to 2000 nM
hNAMPT protein; compound concentration 1 μM
  inhibition at 1 µM: 44%
PC3 cells
  inhibition at 1 µM: 93%

## CC(C)Oc1nc2ccc(C(=O)NCc3cn4cccnc4n3)cc2nc1-c1ccc(F)cc1 [Compound I-506, 3-(4-Fluorophenyl)-N-(imidazo[1,2-a]pyrimidin-2-ylmethyl)-2-isopropoxyquinoxaline-6-carboxamide]
hNAMPT protein; [1]
  inhibition at 1 µM: 78%
hNAMPT protein; [2]
  IC50: 100 to 500 nM
PC3 cells
  inhibition at 1.667 µM: > 99%

## COc1ccccc1-c1nc2cc(C(=O)NCCCn3ccnc3)ccc2nc1-c1ccccc1 [Compound I-36, N-[3-(1H-imidazol-1-yl)propyl]-3-(2-methoxyphenyl)-2-phenylquinoxaline-6-carboxamide]
hNAMPT protein; NAMPT IC50 range class
  IC50: 100 to 500 nM
hNAMPT protein; compound concentration 1 μM
  inhibition at 1 µM: 51%
PC3 cells
  inhibition at 1 µM: 1%

## O=C(NCCCn1ccnc1)c1ccc2nc(-c3ccccc3)c(-c3ccc4c(c3)CCO4)nc2c1 [Compound I-252, 3-(2,3-dihydro-1-benzofuran-5-yl)-N-[3-(1H-imidazol-1-yl)propyl]-2-phenylquinoxaline-6-carboxamide]
hNAMPT protein; NAMPT IC50 range class
  IC50: 500 to 1000 nM
hNAMPT protein; compound concentration 1 μM
  inhibition at 1 µM: 53%
PC3 cells
  inhibition at 1 µM: 2%

## Cn1cc2c(n1)CN(c1nc3cc(C(=O)NCCCn4ccnc4)ccc3nc1-c1ccccc1)CC2 [Compound I-295, N-[3-(1H-imidazol-1-yl)propyl]-3-(2-methyl-2,4,5,7-tetrahydro-6H-pyrazolo[3,4-c]pyridin-6-yl)-2-phenylquinoxaline-6-carboxamide]
hNAMPT protein; NAMPT IC50 range class
  IC50: 1000 to 2000 nM
hNAMPT protein; compound concentration 1 μM
  inhibition at 1 µM: 49%
PC3 cells
  inhibition at 1 µM: -6%

## O=C(NCCCc1ncc[nH]1)c1ccc2nc(OCC3CCCCO3)c(-c3ccc(F)cc3)nc2c1 (stereo not drawn) [Compound I-323, 3-(4-fluorophenyl)-N-[3-(1H-imidazol-2-yl)propyl]-2-(tetrahydro-2H-pyran-2-ylmethoxy)quinoxaline-6-carboxamide]
hNAMPT protein; NAMPT IC50 range class
  IC50: < 100 nM
hNAMPT protein; compound concentration 1 μM
  inhibition at 1 µM: 99%
PC3 cells
  inhibition at 1.667 µM: 3%

## Cc1noc(C)c1COc1nc2ccc(C(=O)NCCCc3ncc[nH]3)cc2nc1-c1ccc(F)cc1 [Compound I-446, 2-[(3,5-dimethylisoxazol-4-yl)methoxy]-3-(4-fluorophenyl)-N-[3-(1H-imidazol-2-yl)propyl]quinoxaline-6-carboxamide]
hNAMPT protein; [1]
  inhibition at 1 µM: > 99%
hNAMPT protein; [2]
  IC50: < 100 nM
PC3 cells
  inhibition at 1.667 µM: 2%

## Cc1ccc(-c2nc3cc(C(=O)NCCCc4ncc[nH]4)ccc3nc2-c2ccc(F)cc2)cc1F [Compound I-311, 3-(3-fluoro-4-methylphenyl)-2-(4-fluorophenyl)-N-[3-(1H-imidazol-2-yl)propyl]quinoxaline-6-carboxamide]
hNAMPT protein; NAMPT IC50 range class
  IC50: 100 to 500 nM
hNAMPT protein; compound concentration 1 μM
  inhibition at 1 µM: 76%
PC3 cells
  inhibition at 1.667 µM: 2%

## CC(C)Oc1nc2cc(F)c(C(=O)NCCCc3ncc[nH]3)cc2nc1-c1ccc(F)cc1 [Compound I-491, N-(3-(1H-imidazol-2-yl)propyl)-7-fluoro-3-(4-fluorophenyl)-2-isopropoxyquinoxaline-6-carboxamide]
hNAMPT protein; [1]
  inhibition at 1 µM: 83%
hNAMPT protein; [2]
  IC50: 100 to 500 nM
PC3 cells
  inhibition at 1.667 µM: 4%

## Cc1ccc(C#N)cc1-c1nc2cc(C(=O)NCCCc3ncc[nH]3)ccc2nc1-c1ccc(F)cc1 [Compound I-472, 3-(5-cyano-2-methylphenyl)-2-(4-fluorophenyl)-N-[3-(1H-imidazol-2-yl)propyl]quinoxaline-6-carboxamide]
hNAMPT protein; [1]
  inhibition at 1 µM: 98%
hNAMPT protein; [2]
  IC50: < 100 nM
PC3 cells
  inhibition at 1.667 µM: 2%

## O=C(NCc1ccc2cn[nH]c2c1)c1ccc2nc(N3CCCCC3)c(-c3ccc(F)cc3)nc2c1 [Compound I-133, 3-(4-fluorophenyl)-N-(1H-indazol-6-ylmethyl)-2-(piperidin-1-yl)quinoxaline-6-carboxamide]
hNAMPT protein; NAMPT IC50 range class
  IC50: 100 to 500 nM
hNAMPT protein; compound concentration 1 μM
  inhibition at 1 µM: 68%
PC3 cells
  inhibition at 1.667 µM: 3%

## O=C(NCCCn1ccnc1)c1ccc2nc(N3CCC(O)C3)c(-c3ccccc3)nc2c1 (stereo not drawn) [Compound I-90, 2-(3-hydroxypyrrolidin-1-yl)-N-[3-(1H-imidazol-1-yl)propyl]-3-phenylquinoxaline-6-carboxamide]
hNAMPT protein; NAMPT IC50 range class
  IC50: 500 to 1000 nM
hNAMPT protein; compound concentration 1 μM
  inhibition at 1 µM: 54%
PC3 cells
  inhibition at 1 µM: -7%

## O=C(NCCCc1ncc[nH]1)c1ccc2nc(-c3ccc(F)cc3)c(-c3cc(OC(F)(F)F)ccc3Cl)nc2c1 [Compound I-432, 3-[2-chloro-5-(trifluoromethoxy)phenyl]-2-(4-fluorophenyl)-N-[3-(1H-imidazol-2-yl)propyl]quinoxaline-6-carboxamide]
hNAMPT protein; [1]
  inhibition at 1 µM: 79%
hNAMPT protein; [2]
  IC50: 100 to 500 nM
PC3 cells
  inhibition at 1.667 µM: 2%

## O=C(NCCCc1ncc[nH]1)c1ccc2nc(-c3ccc(F)cc3)c(-c3cc(F)c(F)c(F)c3)nc2c1 [Compound I-449, 2-(4-fluorophenyl)-N-[3-(1H-imidazol-2-yl)propyl]-3-(3,4,5-trifluorophenyl)quinoxaline-6-carboxamide]
hNAMPT protein; [1]
  inhibition at 1 µM: 82%
hNAMPT protein; [2]
  IC50: 100 to 500 nM
PC3 cells
  inhibition at 1.667 µM: 3%

## O=C(NCCCc1ncc[nH]1)c1ccc2nc(-n3ncc4ccccc43)c(-c3ccc(F)cc3)nc2c1 [Compound I-305, 3-(4-fluorophenyl)-N-[3-(1H-imidazol-2-yl)propyl]-2-(1H-indazol-1-yl)quinoxaline-6-carboxamide]
hNAMPT protein; NAMPT IC50 range class
  IC50: < 100 nM
hNAMPT protein; compound concentration 1 μM
  inhibition at 1 µM: 93%
PC3 cells
  inhibition at 1.667 µM: 3%

## Cn1cc(-c2nc3cc(C(=O)NCCCn4ccnc4)ccc3nc2-c2ccccc2)cn1 [Compound I-167, N-[3-(1H-imidazol-1-yl)propyl]-3-(1-methyl-1H-pyrazol-4-yl)-2-phenylquinoxaline-6-carboxamide]
hNAMPT protein; NAMPT IC50 range class
  IC50: 2000 to 10000 nM
hNAMPT protein; compound concentration 1 μM
  inhibition at 1 µM: 24%
PC3 cells
  inhibition at 1 µM: 1%

## O=C(NCCCn1nnnc1S)c1ccc2nc(-c3ccc(F)cc3)c(-c3ccc(F)cc3)nc2c1 [Compound I-8, 2,3-bis(4-fluorophenyl)-N-[3-(5-sulfanyl-1H-tetrazol-1-yl)propyl]quinoxaline-6-carboxamide]
hNAMPT protein; NAMPT IC50 range class
  IC50: 1000 to 2000 nM
hNAMPT protein; compound concentration 1 μM
  inhibition at 1 µM: 43%
PC3 cells
  inhibition at 1 µM: 103%

## CCc1ccc(-c2nc3cc(C(=O)NCCCc4ncc[nH]4)ccc3nc2-c2ccc(F)cc2)cc1 [Compound I-382, 3-(4-ethylphenyl)-2-(4-fluorophenyl)-N-[3-(1H-imidazol-2-yl)propyl]quinoxaline-6-carboxamide]
hNAMPT protein; NAMPT IC50 range class
  IC50: 500 to 1000 nM
hNAMPT protein; compound concentration 1 μM
  inhibition at 1 µM: 55%
PC3 cells
  inhibition at 1.667 µM: 3%

## CC(=O)Nc1ccccc1-c1nc2cc(C(=O)NCCCn3ccnc3)ccc2nc1-c1ccccc1 [Compound I-135, 3-(2-acetamidophenyl)-N-[3-(1H-imidazol-1-yl)propyl]-2-phenylquinoxaline-6-carboxamide]
hNAMPT protein; NAMPT IC50 range class
  IC50: 2000 to 10000 nM
hNAMPT protein; compound concentration 1 μM
  inhibition at 1 µM: 16%
PC3 cells
  inhibition at 1 µM: 101%

## O=C(NCCCc1ncc[nH]1)c1ccc2nc(-c3ccc(F)cc3)c(-c3ccc(Cl)c(Cl)c3)nc2c1 [Compound I-397, 3-(3,4-dichlorophenyl)-2-(4-fluorophenyl)-N-[3-(1H-imidazol-2-yl)propyl]quinoxaline-6-carboxamide]
hNAMPT protein; [1]
  inhibition at 1 µM: 97%
hNAMPT protein; [2]
  IC50: < 100 nM
PC3 cells
  inhibition at 1.667 µM: 2%

## O=C(NCCCc1ncc[nH]1)c1ccc2nc(OCCO)c(-c3ccc(F)cc3)nc2c1 [Compound I-322, 3-(4-fluorophenyl)-2-(2-hydroxyethoxy)-N-[3-(1H-imidazol-2-yl)propyl]quinoxaline-6-carboxamide]
hNAMPT protein; NAMPT IC50 range class
  IC50: < 100 nM
hNAMPT protein; compound concentration 1 μM
  inhibition at 1 µM: 96%
PC3 cells
  inhibition at 1.667 µM: 2%

## COc1cc(-c2nc3cc(C(=O)NCc4ccc5nccn5c4)ccc3nc2-c2ccc(F)cc2)c(F)cn1 [Compound I-333, 3-(5-fluoro-2-methoxypyridin-4-yl)-2-(4-fluorophenyl)-N-(imidazo[1,2-a]pyridin-6-ylmethyl)quinoxaline-6-carboxamide]
hNAMPT protein; NAMPT IC50 range class
  IC50: 100 to 500 nM
hNAMPT protein; compound concentration 1 μM
  inhibition at 1 µM: 63%
PC3 cells
  inhibition at 1.667 µM: 0%

## CCN(CC)c1nc2cc(C(=O)NCCCn3ccnc3)ccc2nc1-c1ccccc1 [Compound I-278, 3-(diethylamino)-N-[3-(1H-imidazol-1-yl)propyl]-2-phenylquinoxaline-6-carboxamide]
hNAMPT protein; NAMPT IC50 range class
  IC50: 2000 to 10000 nM
hNAMPT protein; compound concentration 1 μM
  inhibition at 1 µM: 15%
PC3 cells
  inhibition at 1 µM: 98%

## O=C(NCCCn1ccnc1)c1ccc2nc(-c3ccccc3)c(C3=CCOCC3)nc2c1 [Compound I-162, 3-(3,6-dihydro-2H-pyran-4-yl)-N-[3-(1H-imidazol-1-yl)propyl]-2-phenylquinoxaline-6-carboxamide]
hNAMPT protein; NAMPT IC50 range class
  IC50: 1000 to 2000 nM
hNAMPT protein; compound concentration 1 μM
  inhibition at 1 µM: 44%
PC3 cells
  inhibition at 1 µM: 1%

## Cc1ccc(-c2nc3cc(C(=O)NCCCc4ncc[nH]4)ccc3nc2-c2ccc(F)cc2)cc1 [Compound I-497, 2-(4-fluorophenyl)-N-[3-(1H-imidazol-2-yl)propyl]-3-(4-methylphenyl)quinoxaline-6-carboxamide]
hNAMPT protein; [1]
  inhibition at 1 µM: 80%
hNAMPT protein; [2]
  IC50: 100 to 500 nM
PC3 cells
  inhibition at 1.667 µM: 2%
